Results published in US20070155771A1, “Methods and means for treating protein conformational disorders” (priority 2003, published 2007).

Experiments:
[1] = test system: PC12 cell line expressing EGFP-tagged HD exon 1 with Q74; experiment: Turnover of Q74 protein and aggregates in stable doxycycline-inducible PC12 cells after switching expression off; assay type: cell-based, rat; details: for numbers of aggregate containing cells / visible aggregates: vs time-matched control; for aggregate formation as high molecular weight fraction on the stack (western blot): 72 hours after switching off the expression, vs time-matched untreated controls
Experimental: (§1) African green monkey kidney cells (COS-7) were grown in Dulbecco's Modified Eagle Medium (DMEM, Sigma) supplemented with 10% Fetal Bovine Serum (FBS), 100 U/ml Penicillin/Streptomycin, 2 mM L-Glutamine and 1 mM Sodium Pyruvate at 37° C., 5% Carbon dioxide. The cells were grown on coverslips in six-well plates for immunofluorescence analysis, or were directly grown in six-well plates to 60-80% confluency for 24 hours for western blot analysis. Transfection was done using LipofectAMINE reagent (Invitrogen) using the manufacturer's protocol. The transfection mixture was replaced by normal culture medium after 5 hours incubation at 37° C. and the transfected cells were analysed by immunofluorescence or immunoblot 48 hours after transfection. The cells were left untreated or treated with 10 mM 3-methyl adenine (3-MA, Sigma), 0.5 mM N^6, N^6, Dimethyl adenosine (DMA, Sigma), 0.2 μg/ml Rapamycin (Sigma), 200 nM Bafilomycin A1 (BafA1, Sigma), 10 μM Lactacystin (Sigma) or 10 μM epoxomicin (Affinity research products ltd.) for 15 hours before fixation for immunofluorescence or processing for western blots. DMA, BafA1, epoxomicin and rapamycin were dissolved in DMSO and 3-MA and lactacystin were in water. Equal amounts of water or DMSO were added to the untreated controls, where relevant. The cells on coverslips were rinsed with 1×PBS, fixed with 4% paraformaldehyde in 1×PBS for 20 min and mounted in antifadent supplemented with 4′,6-diamidino-2-phenylindole (DAPI, 3 μg/ml, Sigma) to allow visualisation of nuclear morphology. The PC12 stable cells were maintained at 75 μg/ml hygromycin in standard medium consisting of high glucose DMEM (Sigma) with 100 U/ml penicillin/streptomycin, 2 mM L-glutamine (Invitrogen), 10% heat-inactivated horse serum (Invitrogen), 5% Tet-approved fetal bovine serum (FBS) (Clontech) and 100 μg/ml G418 (Invitrogen) at 37° C., 10% CO2. The cells were seeded at 1-2×10^5 per well in 6-well plates and were induced with 1 μg/ml doxycycline (Sigma) for 8 hours. The expression of transgenes was switched off by removing doxycycline from the medium. Cells were either left untreated or treated with 3-MA, BafA1, epoxomicin, lactacystin, rapamycin, 10 μg/ml cycloheximide (Sigma) or cycloheximide+rapamycin at the concentrations specified above for 24, 48 or 72 hours and the medium with the inhibitors/activator changed every 24 hours. The cells were then scraped off from the wells into 1.5 ml eppendorf tubes, pelleted at 8000 rpm and washed twice with 1×PBS. They were either fixed with 4% paraformaldehyde for 20 minutes and mounted in DAPI over coverslips on glass slides or processed for western blot analysis. CCI-779 was supplied by Wyeth Pharmaceuticals (Philadelphia). For tissue culture experiments, a stock solution of 1M in ethanol was prepared the day of experiment and was diluted in the appropriate medium
The pellets for westerns from COS-7 or PC12 cells were lysed on ice in Laemmli buffer (62.5 mM Tris-HCl pH6.8, 5% β-mercaptoethanol, 10% glycerol, and 0.01% bromophenol blue) for 30 min in the presence of protease inhibitors (Roche Diagnostics). The lysates were subjected to SDS-PAGE (10%) electrophoresis and proteins transferred onto nitrocellulose membrane (Amersham Pharmacia Biotech). The primary antibodies used include mouse monoclonal anti-GFP antibody (8362-1, Clontech) at 1:2000, rabbit monoclonal anti-actin antibody (A2066, Sigma) at 1:3000, mouse monoclonal anti-tubulin antibody (Clone DM 1A, Sigma) at 1:1000 and mouse monoclonal anti-HA antibody (Covance) at 1:1000. Blots were probed with Horse Radish Peroxidase (HRP) conjugated anti-mouse or anti-rabbit IgG (Bio Rad) at 1:2000. Bands were visualised using the ECL detection reagent (Amersham). […]

[2] = test system: COS-7 cells expressing an exon 1 fragment of the HD gene with 74 glutamines (Q74); experiment: Aggregate formation and abnormal cell nuclei in transiently transfected COS-7 cells expressing Q74; assay type: cell-based, African green monkey; details: for cell death (apoptotic nuclear morphology) in Q74-expressing cells / proportions of Q74-expressing cells with aggregates / appearance (size, number) of Q74 aggregates in cells with aggregates: 48 hours after transfection; for cell death (apoptotic nuclear morphology) in Q74-expressing cells: drug for 15 hours before fixing, same concentrations; for cell death (apoptotic nuclear morphology) in Q74-expressing cells / proportions of Q74-expressing cells with aggregates: vs untreated; for proportions of Q74-expressing cells with aggregates: drug for 15 hours before fixing: 10 mM 3-MA, 0.5 mM DMA, 200 nM BafA1, 0.2 μg/ml rapamycin, 10 μM epoxomicin, 10 μM lactacystin; for appearance (size, number) of Q74 aggregates in cells with aggregates: immunofluorescence, drug 15 hours
From the text: (§2) Mammalian expression vectors comprising EGFP (pEGFP-C1, Clontech) fused at its C-terminus with a Huntington's Disease gene exon 1 fragment with 74 polyglutamine repeats (Q74) or a polyalanine stretch of 19 repeats (A19) were used (Rankin, J. et al (2000) Biochem. J., 348, 15-19; Narain, Y. et al (1999) J. Med. Genet., 36, 739-746.). A Haemagglutinin-tagged Huntington's Disease gene exon 1 fragment with 74 polyglutamine repeats in pHM6 vector (Q74-HA) was also used. The PC12 stable lines expressing exon 1 of Huntington gene were as described in Wyttenbach A. et al., (2001) Hum. Mol. Genet. 10 1829-45.
as §1
(§3) The pellets for westerns from COS-7 or PC12 cells were lysed on ice in Laemmli buffer (62.5 mM Tris-HCl pH6.8, 5% β-mercaptoethanol, 10% glycerol, and 0.01% bromophenol blue) for 30 min in the presence of protease inhibitors (Roche Diagnostics). The lysates were subjected to SDS-PAGE (10%) electrophoresis and proteins transferred onto nitrocellulose membrane (Amersham Pharmacia Biotech). […]

[3] = test system: COS-7 cells expressing EGFP fused to 19 alanines (A19); experiment: Aggregate formation and abnormal cell nuclei in transiently transfected COS-7 cells expressing A19; assay type: cell-based, African green monkey; details: for cell death (abnormal nuclei) in A19-expressing cells / proportions of A19-expressing cells with aggregates / appearance (size, number) of A19 aggregates in cells with aggregates: 48 hours after transfection; for cell death (abnormal nuclei) in A19-expressing cells: drug for 15 hours before fixing, same concentrations; for cell death (abnormal nuclei) in A19-expressing cells / proportions of A19-expressing cells with aggregates: vs untreated; for proportions of A19-expressing cells with aggregates: drug for 15 hours before fixing: 10 mM 3-MA, 0.5 mM DMA, 200 nM BafA1, 0.2 μg/ml rapamycin, 10 μM epoxomicin; for appearance (size, number) of A19 aggregates in cells with aggregates: immunofluorescence, drug 15 hours
From the text: as §2, §1, §3

Row | Molecule | numbers of aggregate containing cells / visible aggregates ([1]; 8 h ON then 72 h OFF with drug) | aggregate formation as high molecular weight fraction on the stack (western blot) [1] | cell death (apoptotic nuclear morphology) in Q74-expressing cells [2] | proportions of Q74-expressing cells with aggregates [2] | appearance (size, number) of Q74 aggregates in cells with aggregates [2] | levels of an HA-tagged version of the HD exon 1 fragment with Q74 ([2]; western blot, 10 mM 3-MA) | levels of the transgene protein (EGFP-Q74) ([2]; western blot, 10 mM 3-MA) | cell death (abnormal nuclei) in A19-expressing cells [3] | proportions of A19-expressing cells with aggregates [3] | appearance (size, number) of A19 aggregates in cells with aggregates [3] | levels of the transgene protein (EGFP-A19) ([3]; western blot, 10 mM 3-MA) | cellular fluorescence ([1]; 8 h ON then 48 h OFF with 10 μM epoxomicin) | number of aggregate-containing cells ([1]; 8 h ON then 48 h OFF with 10 μM epoxomicin or 10 μM lactacystin, vs control) | heat shock protein 70 ([1]; epoxomicin treatment) | cell fluorescence (EGFP-Q74 clearance) ([1]; 8 h ON then 72 h OFF with drug, 0.2 μg/ml rapamycin, 10 μg/ml cycloheximide) | Q74 protein levels on a western blot ([1]; 8 h ON, then OFF with 0.2 μg/ml rapamycin, vs untreated control)
1 | Cn1cnc(N)c2ncnc1-2 [3-MA, 3-methyl adenine] | increased | increased aggregate formation | increase | increased | increased their apparent size and number | increase | increase | increase | increased | increased their apparent size and number | increase |  |  |  |  | 
2 | CO/C1=C\C(C)=C\[C@@H](C)[C@@H](O)[C@@H](C)C/C(C)=C/C=C/[C@H](OC)[C@@H]([C@@H](C)[C@@H](O)[C@H](C)[C@@]2(O)C[C@@H](O)[C@H](C)[C@@H](C(C)C)O2)OC1=O [BafA1, Bafilomycin A1] | increased | increased aggregate formation | increase | increased | increased size |  |  | increase | increased | increased size |  |  |  |  |  | 
3 | CC[C@H](C)[C@H](NC(=O)[C@H]([C@@H](C)CC)N(C)C(C)=O)C(=O)N[C@H](C(=O)N[C@@H](CC(C)C)C(=O)[C@@]1(C)CO1)[C@@H](C)O [epoxomicin] |  |  | did not affect | did not affect | more aggregates in each aggregate-containing cell |  |  |  | increase | more aggregates in each aggregate-containing cell |  | obvious increase | reduction | marked increase |  | 
4 | rapamycin |  |  | no significant change | no significant change |  |  |  | decrease | decrease |  |  |  |  |  | loss of fluorescence | decrease
